Columns and labels:
[1] = tested on: MRSA isolates; details: all MRSA isolates; microdilution, CLSI M02 and M07
[2] = tested on: methicillin-resistant Staphylococcus aureus (MRSA)
Protocol: This retrospective study was conducted between June 2015 and May 2019, and was approved by the Institutional Review Board of Hyogo College of Medicine (No. 3266). […] The analysis of Cmin and the safety population included all eligible patients.

teicoplanin
Teicoplanin MICs [1]: ≤ 2 µg/mL
Clinical success at the end of the therapy ([2]; all patients of the clinical efficacy population, 55 of 76 patients): 72.4%
Crude odds ratio (95% CI) for early clinical response ([2]; factor: Enhanced high dose loading regimen, univariate analysis): 0.90 (0.31–2.63)
Adjusted odds ratio (95%CI) for early clinical response ([2]; human, in vivo): 3.95 (1.25–12.53)
